In brackets after ≈: the same amount, converted by molar mass.
Columns and labels:
[1] = target: T1, PBP3 from Pseudomonas aeruginosa (PAO1) (Pseudomonas aeruginosa, UniProt G3XD46); experiment: Bocillin-FL fluorescence polarization competition binding, P. aeruginosa PBP3; conditions: Binding affinity to P. aeruginosa PBP3; fluorescence polarization competition binding assay using Bocillin-FL; read-out: P. aeruginosa PBP3 Potency
T1 construct: made in house
Summary of the method: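 Purified PBP was preincubated with inhibitor (E. coli PBP3 1.5 μM, 30 min; P. aeruginosa PBP3 0.75 μM, A. baumannii PBP3 0.2 μM and PBP1a 1 μM, 15 min), then Bocillin-FL (0.1 μM; 0.05 μM for PBP1a) added and FP read up to 60 min. EC50 = 50% loss of bound probe.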

E. coli ATCC 25922 = experiment: microbe, parasite or virus in culture; type: cell-based; conditions: Escherichia coli, ATCC25922, read-out: MIC E. coli 25922
E. coli D22 = experiment: microbe, parasite or virus in culture; type: cell-based; conditions: Escherichia coli, D22, read-out: MIC E. coli D22
E. coli AG100A = experiment: Broth microdilution MIC in CAMHB; type: cell-based; conditions: Escherichia coli, read-out: MIC E. coli AG100A
K. pneumoniae 848844 = experiment: microbe, parasite or virus in culture; type: cell-based; conditions: Klebsiella pneumoniae, 848844, read-out: MIC K. pneumoniae 848844
K. pneumoniae SI-117 = experiment: microbe, parasite or virus in culture; type: cell-based; conditions: Klebsiella pneumoniae, SI117, read-out: MIC K. pneumoniae SI-117
P. aeruginosa ATCC 35151 = experiment: microbe, parasite or virus in culture; type: cell-based; conditions: Pseudomonas aeruginosa, ATCC35151, read-out: MIC P. aeruginosa ATCC 35151
[2] = system: P. aeruginosa (ΔmexAB-oprM); experiment: Broth microdilution MIC in CAMHB; type: cell-based; conditions: Pseudomonas aeruginosa; read-out: MIC P. aeruginosa ΔmexAB-oprM
[3] = system: N. gonorrhoeae ATCC 49226; experiment: Liquid broth MIC in Fastidious broth; conditions: Neisseria gonorrhoeae, ATCC49226, read-out: Minimum Inhibitory Concentration (MIC), N. gonorrhoeae ATCC 49226
N. gonorrhoeae FA1090 = experiment: Liquid broth MIC in Fastidious broth; conditions: Neisseria gonorrhoeae, FA1090, read-out: Minimum Inhibitory Concentration (MIC), N. gonorrhoeae FA 1090
N. gonorrhoeae WHO G = experiment: Liquid broth MIC in Fastidious broth; conditions: Neisseria gonorrhoeae, read-out: Minimum Inhibitory Concentration (MIC), N. gonorrhoeae WHO G
N. gonorrhoeae WHO M = experiment: Liquid broth MIC in Fastidious broth; conditions: Neisseria gonorrhoeae, read-out: Minimum Inhibitory Concentration (MIC), N. gonorrhoeae WHO M
Protocol: (§1) Liquid broth-based assays were used for antibacterial testing of PBP inhibitors in Neisseria gonorrhoeae. Briefly, cryo-preserved bacterial cultures of clinical strains were streaked for isolation on Chocolate Agar (72 g/L (2×) GC Agar Base (BD #228950) and 2% (2×) Hemoglobin was autoclaved at 121° C. for 20 minutes to sterilize. Once cooled to ˜50° C. the 2×GC Agar Base and 2× Hemoglobin solutions are combined and 1% IsoVitaleX Enrichment (BD #211876) was added to the solution). Strains were incubated at 36° C. and 5% CO2 to allow growth of colonies, 24 hours before inoculum preparation. 2-fold serial dilutions of test compounds were conducted in a 96 well plate with a final volume of 75 μL per well at 2-fold the final desired concentration in Fastidious broth (Remel #R07664). For preparation of assay inoculum, a direct suspension was prepared by aseptically swabbing 10-15 colonies from agar plates into culture tubes containing 2 mL of fresh sterile saline. After the dilution plates were set up, direct suspensions were then diluted in a cuvette containing sterile saline and the optical density was measured at 600 nm. Inocula were diluted such that 75 μL of this culture in Fastidious broth results in a starting bacterial concentration of 5×10^5 CFU/mL when added to the dilution plates. The plates were incubated for ˜24 hours at 36° C. and 5% CO2.

N. gonorrhoeae WHO K = experiment: Liquid broth MIC in Fastidious broth; conditions: Neisseria gonorrhoeae, read-out: Minimum Inhibitory Concentration (MIC), N. gonorrhoeae WHO K
N. gonorrhoeae WHO X = experiment: Liquid broth MIC in Fastidious broth; conditions: Neisseria gonorrhoeae, read-out: Minimum Inhibitory Concentration (MIC), N. gonorrhoeae WHO X
N. gonorrhoeae WHO Q = experiment: Liquid broth MIC in Fastidious broth; conditions: Neisseria gonorrhoeae, read-out: Minimum Inhibitory Concentration (MIC), N. gonorrhoeae WHO Q
Protocol: as §1

N. gonorrhoeae CDC-0197 = experiment: Liquid broth MIC in Fastidious broth; conditions: Neisseria gonorrhoeae, CDC0197, read-out: Minimum Inhibitory Concentration (MIC), N. gonorrhoeae CDC-0197
Protocol: ATCC 49226, FA1090, MS11, WHO G, WHO L, and WHO M produce wild type or wild-type like PBP2. WHO K, WHO X, WHO Z, WHO Q, and CDC-0197 produce mosaic PBP2. Liquid broth-based assays were used for antibacterial testing of PBP inhibitors in Neisseria gonorrhoeae. Briefly, cryo-preserved bacterial cultures of clinical strains were streaked for isolation on Chocolate Agar (72 g/L (2×) GC Agar Base (BD #228950) and 2% (2×) Hemoglobin was autoclaved at 121° C. for 20 minutes to sterilize. Once cooled to ˜50° C. the 2×GC Agar Base and 2× Hemoglobin solutions are combined and 1% IsoVitaleX Enrichment (BD #211876) was added to the solution). Strains were incubated at 36° C. and 5% CO2 to allow growth of colonies, 24 hours before inoculum preparation. 2-fold serial dilutions of test compounds were conducted in a 96 well plate with a final volume of 75 μL per well at 2-fold the final desired concentration in Fastidious broth (Remel #R07664). For preparation of assay inoculum, a direct suspension was prepared by aseptically swabbing 10-15 colonies from agar plates into culture tubes containing 2 mL of fresh sterile saline. After the dilution plates were set up, direct suspensions were then diluted in a cuvette containing sterile saline and the optical density was measured at 600 nm. Inocula were diluted such that 75 μL of this culture in Fastidious broth results in a starting bacterial concentration of 5×10^5 CFU/mL when added to the dilution plates. The plates were incubated for ˜24 hours at 36° C. and 5% CO2.

T1 sequence (G3XD46 whole entry): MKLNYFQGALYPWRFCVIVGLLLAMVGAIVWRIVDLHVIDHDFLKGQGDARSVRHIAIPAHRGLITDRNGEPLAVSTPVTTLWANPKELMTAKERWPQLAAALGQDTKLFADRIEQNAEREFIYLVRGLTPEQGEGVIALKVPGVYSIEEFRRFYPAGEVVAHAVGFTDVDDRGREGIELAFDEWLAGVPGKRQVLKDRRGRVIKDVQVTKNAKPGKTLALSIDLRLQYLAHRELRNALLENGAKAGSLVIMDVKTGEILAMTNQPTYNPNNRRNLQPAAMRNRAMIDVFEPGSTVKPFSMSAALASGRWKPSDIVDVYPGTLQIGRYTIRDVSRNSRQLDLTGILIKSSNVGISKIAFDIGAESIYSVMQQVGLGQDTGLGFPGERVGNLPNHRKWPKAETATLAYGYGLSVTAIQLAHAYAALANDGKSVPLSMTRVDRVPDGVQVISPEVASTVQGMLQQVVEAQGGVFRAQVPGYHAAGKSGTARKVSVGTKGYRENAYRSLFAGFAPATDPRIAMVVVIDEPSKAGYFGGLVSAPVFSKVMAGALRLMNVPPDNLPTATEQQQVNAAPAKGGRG

Structure (SMILES) | IC50 [1] [µM] | MIC (E. coli ATCC 25922) [µg/mL] | MIC (E. coli D22) [µg/mL] | MIC (E. coli AG100A) [µg/mL] | MIC (K. pneumoniae 848844) [µg/mL] | MIC (K. pneumoniae SI-117) [µg/mL] | MIC (P. aeruginosa ATCC 35151) [µg/mL] | MIC [2] [µg/mL] | MIC [3] [µg/mL] | MIC (N. gonorrhoeae FA1090) [µg/mL] | MIC (N. gonorrhoeae WHO G) [µg/mL] | MIC (N. gonorrhoeae WHO M) [µg/mL] | MIC (N. gonorrhoeae WHO K) [µg/mL] | MIC (N. gonorrhoeae WHO X) [µg/mL] | MIC (N. gonorrhoeae WHO Q) [µg/mL] | MIC (N. gonorrhoeae CDC-0197) [µg/mL]
CS(=O)(=O)NC(C(=O)N[C@H]1Cc2cccc(C(=O)O)c2OB1O)c1ccc(P(=O)(O)O)cc1 (stereo partly drawn) [Example 59, (3R)-2-hydroxy-3-(2-(methylsulfonamido)-2-(4-phosphonophenyl)acetamido)-3,4-dihydro-2H-benzo[e][1,2]oxaborinine-8-carboxylic acid] | > 250 | > 128 | > 128 | > 128 | > 128 | > 128 | 32 to 64 (≈ 64.2 to 128 µM) | > 128 | 16 to 32 (≈ 32.1 to 64.2 µM) | 16 to 32 (≈ 32.1 to 64.2 µM) | 16 to 32 (≈ 32.1 to 64.2 µM) | 4 to 8 (≈ 8.03 to 16.1 µM) | 16 to 32 (≈ 32.1 to 64.2 µM) | 16 to 32 (≈ 32.1 to 64.2 µM) | 16 to 32 (≈ 32.1 to 64.2 µM) | 16 to 32 (≈ 32.1 to 64.2 µM)
CC(C)S(=O)(=O)NC(C(=O)N[C@H]1Cc2cccc(C(=O)O)c2OB1O)c1ccc(P(=O)(O)O)cc1 (stereo partly drawn) [Example 60, (3R)-2-hydroxy-3-(2-((1-methylethyl)sulfonamido)-2-(4-phosphonophenyl)acetamido)-3,4-dihydro-2H-benzo[e][1,2]oxaborinine-8-carboxylic acid] | 50 to 250 | > 128 | > 128 | > 128 | > 128 | > 128 | 32 to 64 (≈ 60.8 to 122 µM) | > 128 | 16 to 32 (≈ 30.4 to 60.8 µM) | 4 to 8 (≈ 7.6 to 15.2 µM) | 16 to 32 (≈ 30.4 to 60.8 µM) | 4 to 8 (≈ 7.6 to 15.2 µM) | 16 to 32 (≈ 30.4 to 60.8 µM) | 16 to 32 (≈ 30.4 to 60.8 µM) | 16 to 32 (≈ 30.4 to 60.8 µM) | 16 to 32 (≈ 30.4 to 60.8 µM)
O=C(O)c1cccc2c1OB(O)[C@@H](NC(=O)C(NS(=O)(=O)C1CC1)c1ccc(P(=O)(O)O)cc1)C2 (stereo partly drawn) [Example 61, (3R)-3-(2-(cyclopropanesulfonamido)-2-(4-phosphonophenyl)acetamido)-2-hydroxy-3,4-dihydro-2H-benzo[e][1,2]oxaborinine-8-carboxylic acid] | 10 to 50 | > 128 | > 128 | > 128 | > 128 | > 128 | 32 to 64 (≈ 61 to 122 µM) | > 128 | 16 to 32 (≈ 30.5 to 61 µM) | 16 to 32 (≈ 30.5 to 61 µM) | 16 to 32 (≈ 30.5 to 61 µM) | 16 to 32 (≈ 30.5 to 61 µM) | 16 to 32 (≈ 30.5 to 61 µM) | 16 to 32 (≈ 30.5 to 61 µM) | 16 to 32 (≈ 30.5 to 61 µM) | 16 to 32 (≈ 30.5 to 61 µM)
O=C1CC[C@@H](C(=O)NC(C(=O)N[C@H]2Cc3cccc(C(=O)O)c3OB2O)c2ccc(P(=O)(O)O)cc2)N1 (stereo partly drawn) [Example 64, (3R)-2-hydroxy-3-(2-((S)-5-oxopyrrolidine-2-carboxamido)-2-(4-phosphonophenyl)acetamido)-3,4-dihydro-2H-benzo[e][1,2]oxaborinine-8-carboxylic acid] | 50 to 250 | > 128 | 32 to 64 (≈ 60.2 to 120 µM) | > 128 | > 128 | > 128 | 8 to 16 (≈ 15.1 to 30.1 µM) | > 128 | 4 to 8 (≈ 7.53 to 15.1 µM) | 4 to 8 (≈ 7.53 to 15.1 µM) | 4 to 8 (≈ 7.53 to 15.1 µM) | 1 to 2 (≈ 1.88 to 3.76 µM) | 16 to 32 (≈ 30.1 to 60.2 µM) | 16 to 32 (≈ 30.1 to 60.2 µM) | 16 to 32 (≈ 30.1 to 60.2 µM) | 4 to 8 (≈ 7.53 to 15.1 µM)
CC(=O)N1CCC[C@H]1C(=O)NC(C(=O)N[C@H]1Cc2cccc(C(=O)O)c2OB1O)c1ccc(P(=O)(O)O)cc1 (stereo partly drawn) [Example 65, (3R)-3-(2-((S)-1-acetylpyrrolidine-2-carboxamido)-2-(4-phosphonophenyl)acetamido)-2-hydroxy-3,4-dihydro-2H-benzo[e][1,2]oxaborinine-8-carboxylic acid] | 50 to 250 | > 128 | > 128 | > 128 | > 128 | > 128 | 8 to 16 (≈ 14.3 to 28.6 µM) | > 128 | 16 to 32 (≈ 28.6 to 57.2 µM) | 4 to 8 (≈ 7.15 to 14.3 µM) | 16 to 32 (≈ 28.6 to 57.2 µM) | 4 to 8 (≈ 7.15 to 14.3 µM) | 16 to 32 (≈ 28.6 to 57.2 µM) | 16 to 32 (≈ 28.6 to 57.2 µM) | 16 to 32 (≈ 28.6 to 57.2 µM) | 16 to 32 (≈ 28.6 to 57.2 µM)
CN1CCC[C@H]1C(=O)NC(C(=O)N[C@H]1Cc2cccc(C(=O)O)c2OB1O)c1ccc(P(=O)(O)O)cc1 (stereo partly shown) [Example 66] | 10 to 50 | > 128 | 32 to 64 (≈ 60.2 to 120 µM) | 32 to 64 (≈ 60.2 to 120 µM) | > 128 | > 128 | 8 to 16 (≈ 15.1 to 30.1 µM) | 32 to 64 (≈ 60.2 to 120 µM) | 16 to 32 (≈ 30.1 to 60.2 µM) | 4 to 8 (≈ 7.53 to 15.1 µM) | 4 to 8 (≈ 7.53 to 15.1 µM) | 4 to 8 (≈ 7.53 to 15.1 µM) | 16 to 32 (≈ 30.1 to 60.2 µM) | 16 to 32 (≈ 30.1 to 60.2 µM) | 16 to 32 (≈ 30.1 to 60.2 µM) | 16 to 32 (≈ 30.1 to 60.2 µM)
O=C(O)c1cccc2c1OB(O)[C@@H](NC(=O)C(NC(=O)C(F)(F)F)c1ccc(P(=O)(O)O)cc1)C2 (stereo partly drawn) [Example 172, (3R)-2-hydroxy-3-(2-(4-phosphonophenyl)-2-(2,2,2-trifluoroacetamido)acetamido)-3,4-dihydro-2H-benzo[e][1,2]oxaborinine-8-carboxylic acid] | 50 to 250 | > 128 | > 128 | > 128 | > 128 | > 128 | 32 to 64 (≈ 62 to 124 µM) | > 128 | 16 to 32 (≈ 31 to 62 µM) | 4 to 8 (≈ 7.75 to 15.5 µM) | 16 to 32 (≈ 31 to 62 µM) | 4 to 8 (≈ 7.75 to 15.5 µM) | 16 to 32 (≈ 31 to 62 µM) | 16 to 32 (≈ 31 to 62 µM) | 16 to 32 (≈ 31 to 62 µM) | 16 to 32 (≈ 31 to 62 µM)
O=C(O)c1cccc2c1OB(O)[C@@H](NC(=O)[C@H](NC(=O)[C@@H]1CCCN1)c1ccc(P(=O)(O)O)cc1)C2 [Example 173, (R)-2-hydroxy-3-((R)-2-(4-phosphonophenyl)-2-((S)-pyrrolidine-2-carboxamido)acetamido)-3,4-dihydro-2H-benzo[e][1,2]oxaborinine-8-carboxylic acid] | 10 to 50 | > 128 | 32 to 64 (≈ 61.9 to 124 µM) | 32 to 64 (≈ 61.9 to 124 µM) | > 128 | 32 to 64 (≈ 61.9 to 124 µM) | 8 to 16 (≈ 15.5 to 30.9 µM) | 32 to 64 (≈ 61.9 to 124 µM) | 16 to 32 (≈ 30.9 to 61.9 µM) | 4 to 8 (≈ 7.73 to 15.5 µM) | 4 to 8 (≈ 7.73 to 15.5 µM) | 4 to 8 (≈ 7.73 to 15.5 µM) | 16 to 32 (≈ 30.9 to 61.9 µM) | 16 to 32 (≈ 30.9 to 61.9 µM) | 16 to 32 (≈ 30.9 to 61.9 µM) | 16 to 32 (≈ 30.9 to 61.9 µM)
O=C(O)c1cccc2c1OB(O)[C@@H](NC(=O)C(NC(=O)c1ccc[nH]c1=O)c1ccc(P(=O)(O)O)cc1)C2 (stereo partly drawn) [Example 174, (3R)-2-hydroxy-3-(2-(2-oxo-1,2-dihydropyridine-3-carboxamido)-2-(4-phosphonophenyl)acetamido)-3,4-dihydro-2H-benzo[e][1,2]oxaborinine-8-carboxylic acid] | 10 to 50 | > 128 | 32 to 64 (≈ 59.1 to 118 µM) | > 128 | > 128 | > 128 | 2 to 4 (≈ 3.7 to 7.39 µM) | 32 to 64 (≈ 59.1 to 118 µM) | 4 to 8 (≈ 7.39 to 14.8 µM) | 1 to 2 (≈ 1.85 to 3.7 µM) | 1 to 2 (≈ 1.85 to 3.7 µM) | 1 to 2 (≈ 1.85 to 3.7 µM) | 16 to 32 (≈ 29.6 to 59.1 µM) | 16 to 32 (≈ 29.6 to 59.1 µM) | 16 to 32 (≈ 29.6 to 59.1 µM) | 16 to 32 (≈ 29.6 to 59.1 µM)
O=C(O)c1cccc2c1OB(O)[C@@H](NC(=O)[C@H](NC(=O)c1c[nH]ccc1=O)c1ccc(P(=O)(O)O)cc1)C2 [Example 175, (R)-2-hydroxy-3-((R)-2-(4-oxo-1,4-dihydropyridine-3-carboxamido)-2-(4-phosphonophenyl)acetamido)-3,4-dihydro-2H-benzo[e][1,2]oxaborinine-8-carboxylic acid] | < 10 | 32 to 64 (≈ 59.1 to 118 µM) | 8 to 16 (≈ 14.8 to 29.6 µM) | 32 to 64 (≈ 59.1 to 118 µM) | 32 to 64 (≈ 59.1 to 118 µM) | 32 to 64 (≈ 59.1 to 118 µM) | < 1 | 8 to 16 (≈ 14.8 to 29.6 µM) | 1 to 2 (≈ 1.85 to 3.7 µM) | < 1 | 1 to 2 (≈ 1.85 to 3.7 µM) | < 1 | 16 to 32 (≈ 29.6 to 59.1 µM) | 16 to 32 (≈ 29.6 to 59.1 µM) | 4 to 8 (≈ 7.39 to 14.8 µM) | 4 to 8 (≈ 7.39 to 14.8 µM)
